Data published in PubChem BioAssay (NCI).
“And” between values parts separate entries of the source, which are not always exact repeats. Equal values may be shown once.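 The compound was tested at five concentrations on cells cultured in 96-well plates, with a 48-hour exposure period. GI50 = concentration required for 50% inhibition of growth. TGI denotes the concentration required for complete inhibition of growth.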

Experiments:
Experiment in all cases: NCI anticancer screen, dose series, 48 h
[1] = system: SK-MEL-2 melanoma
[2] = system: OVCAR-4 ovarian
[3] = system: LOX IMVI melanoma
[4] = system: RXF 393 renal
[5] = system: OVCAR-8 ovarian
[6] = system: KM12 colon
[7] = system: 786-0 renal
[8] = system: CAKI-1 renal
[9] = system: BT-549 breast
[10] = system: UACC-257 melanoma

| Structure (SMILES) | GI50 [1] | TGI [1] | GI50 [2] | TGI [2] | GI50 [3] | TGI [3] | GI50 [4] | TGI [4] | GI50 [5] | TGI [5] | GI50 [6] | TGI [6] | GI50 [7] | TGI [7] | GI50 [8] | TGI [8] | GI50 [9] | TGI [9] | GI50 [10] | TGI [10] |
| --- | --- | --- | --- | --- | --- | --- | --- | --- | --- | --- | --- | --- | --- | --- | --- | --- | --- | --- | --- | --- |
| O=C(NC[C@H](O)CN1CCc2ccccc2C1)c1cc(NC2COC2)ncn1 | 15.9 µM | 51.7 µM | 16 µM | > 100 µM | 7.21 µM | 23.3 µM | 2.31 µM | 12.9 µM | 20.8 µM | > 100 µM | 16.2 µM | > 100 µM | 12.6 µM | 41.9 µM | 26.4 µM | > 100 µM | 7.24 µM | 35.4 µM | 19.8 µM | 90.4 µM |
| O=c1oc2ccc(-c3ccc(F)cc3F)cc2c(=O)n1-c1cccc(C(F)(F)F)c1 | 0.55 µM | 2.85 µM | 1.67 µM | 13.6 µM | 1.61 µM | 5.55 µM | 1.23 µM | 4.14 µM | 2.05 µM | > 100 µM | 2.09 µM | 5.63 µM | 2.47 µM | 6.5 µM | 1.22 µM | 5.19 µM | 0.605 µM | 3.7 µM | 0.274 µM | 3.31 µM |
| COC(=O)[C@]12CC[C@@H](C)[C@H](C)[C@@H]1C1=CC[C@@H]3[C@@]4(C)C[C@@H](O)[C@H](O)[C@@](C)(CO)C4=CC[C@@]3(C)[C@]1(C)CC2 | 17.8 µM | 33.1 µM | 15.9 µM | 32.8 µM | 16.8 µM | 34.9 µM | 16.9 µM | 34 µM | 15.7 µM | 33.8 µM | 14.8 µM | 32.5 µM | 18.5 µM | 34.5 µM | 15.6 µM | 29.8 µM | 16.2 µM | 31.7 µM | 20.1 µM | 35.5 µM |
| CCCC(=O)Nc1cn(COC)c(C(=O)N2C[C@@H]3C[C@]34C2=CC(=O)c2[nH]cc(C)c24)n1 | 2.98 µM | 27.3 µM and 9.29 µM | 4.66 µM | 18.2 µM and 14.3 µM | – | 21.9 µM and 53.8 µM | 2.21 µM | 16.5 µM and 4.67 µM | – | 12.8 µM and 14 µM | 10.5 µM | > 5 µM and 24.5 µM | 3.14 µM | 14.8 µM and 10.1 µM | 4.65 µM | 12.1 µM and 16.2 µM | – | 24.7 µM and 21.7 µM | 13.3 µM | 23.5 µM and 27.7 µM |
| NS(=O)(=O)c1ccc(N=Nc2c(O)c(C(=O)O)cc3ccccc23)cc1 | – | > 100 µM | – | > 100 µM | – | > 100 µM | – | > 100 µM | – | > 100 µM | – | > 100 µM | – | > 100 µM | – | > 100 µM | – | > 100 µM | – | > 100 µM |
| Cc1c(N(C)C)ccc2c(=O)c3cccc(CC(=O)O)c3oc12 | – | > 100 µM | – | > 100 µM | – | > 100 µM | – | > 100 µM | – | > 100 µM | – | > 100 µM | – | > 100 µM | – | > 100 µM | – | > 100 µM | – | > 100 µM |
| O=C(Nc1cc(C(F)(F)F)cc(C(F)(F)F)c1)c1cc(Cl)ccc1O | 0.209 µM and 0.206 µM | 0.589 µM and 0.981 µM | 0.294 µM and 0.288 µM | > 10 µM and 13.4 µM | 0.316 µM and 0.366 µM | 1.51 µM and 2.68 µM | 0.245 µM and 0.19 µM | 1.16 µM and 0.673 µM | 0.278 µM and 0.285 µM | 3.85 µM and 6.08 µM | 0.318 µM and 0.312 µM | 1.14 µM and 1.12 µM | 0.269 µM and 0.293 µM | 0.881 µM and 1.15 µM | 0.212 µM and 0.18 µM | 0.644 µM and 0.677 µM | 0.206 µM and 0.213 µM | 0.714 µM and 0.712 µM | 0.196 µM and 0.194 µM | 0.75 µM and 1.21 µM |
